Test [1] has as its target Proto-oncogene tyrosine-protein kinase receptor Ret (Homo sapiens, UniProt P07949). Nature of the test: Binding affinity to RET (unknown origin) assessed as dissociation constant in presence of ATP by FRET based Z'-Lyte assay.
Test [2] relates to BaF3. The test can be described thus: Antiproliferative activity against mouse BaF3 cells expressing CCDC6-RET-G810R incubated for 72 hrs by CCK8 assay. It is filed as functional, cell-based. Conditions: BaF3, 72 h. Background: Formazan colour is commonly taken as a measure of viable cells.
Test [3] deals with BaF3. Nature of the test: Antiproliferative activity against mouse BaF3 cells expressing CCDC6-RET-V804M incubated for 72 hrs by CCK8 assay. In kind it is functional, cell-based. The note with it: BaF3, 72 h.
Test [4] has as its system BaF3. The test can be described thus: cells. Conditions: Mus musculus, BaF3, 72 h.
Description: Antiproliferative activity against mouse BaF3 cells incubated for 72 hrs by CCK8 assay
In test [5] the test system is BaF3. Nature of the test: Antiproliferative activity against mouse BaF3 cells expressing CCDC6-RET incubated for 72 hrs by CCK8 assay. In kind it is functional, cell-based. Conditions: BaF3, 72 h.
Test [6] has as its system BaF3. The test can be described thus: Antiproliferative activity against mouse BaF3 cells expressing CCDC6-RET-G810C incubated for 72 hrs by CCK8 assay. It is filed as functional, cell-based. Conditions: BaF3, 72 h.

Sequence of Proto-oncogene tyrosine-protein kinase receptor Ret (P07949 whole entry): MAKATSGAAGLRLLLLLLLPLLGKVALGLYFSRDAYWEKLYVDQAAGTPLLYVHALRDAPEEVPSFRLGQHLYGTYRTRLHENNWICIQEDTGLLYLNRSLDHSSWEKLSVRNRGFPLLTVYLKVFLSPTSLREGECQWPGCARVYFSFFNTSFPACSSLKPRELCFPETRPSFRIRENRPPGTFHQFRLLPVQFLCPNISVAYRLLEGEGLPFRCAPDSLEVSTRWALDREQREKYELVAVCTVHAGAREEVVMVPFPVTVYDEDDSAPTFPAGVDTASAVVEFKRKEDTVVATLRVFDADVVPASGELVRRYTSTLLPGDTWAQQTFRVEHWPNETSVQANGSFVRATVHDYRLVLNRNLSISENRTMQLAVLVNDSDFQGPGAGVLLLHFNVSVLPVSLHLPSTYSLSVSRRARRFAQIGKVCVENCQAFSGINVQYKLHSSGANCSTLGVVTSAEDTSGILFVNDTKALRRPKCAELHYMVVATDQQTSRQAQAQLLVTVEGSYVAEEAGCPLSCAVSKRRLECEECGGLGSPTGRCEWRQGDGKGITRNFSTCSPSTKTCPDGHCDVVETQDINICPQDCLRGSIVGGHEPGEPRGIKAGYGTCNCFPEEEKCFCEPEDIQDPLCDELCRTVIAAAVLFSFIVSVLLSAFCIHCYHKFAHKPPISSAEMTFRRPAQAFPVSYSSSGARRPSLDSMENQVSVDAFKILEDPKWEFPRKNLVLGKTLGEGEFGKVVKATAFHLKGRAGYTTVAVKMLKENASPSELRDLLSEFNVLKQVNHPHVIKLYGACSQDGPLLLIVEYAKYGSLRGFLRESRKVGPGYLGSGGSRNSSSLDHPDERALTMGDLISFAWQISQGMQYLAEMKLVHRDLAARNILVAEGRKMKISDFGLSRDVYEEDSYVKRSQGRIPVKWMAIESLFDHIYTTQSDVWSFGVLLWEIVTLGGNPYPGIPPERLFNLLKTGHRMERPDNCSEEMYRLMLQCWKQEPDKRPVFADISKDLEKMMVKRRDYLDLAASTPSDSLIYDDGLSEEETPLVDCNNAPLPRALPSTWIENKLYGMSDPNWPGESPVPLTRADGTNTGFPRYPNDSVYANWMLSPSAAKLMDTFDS

One may read the Kd as the equilibrium constant for the complex coming apart. A word on the IC50: it is the concentration needed to halve the response being measured. A low value points to greater potency. Consider `Cc1cc(NC(=O)Nc2cc(C(C)(C)C)on2)ccc1-c1cc(-c2ccc(OCCN3CCOCC3)cc2)[nH]n1`, for which the Kd in test [1] was determined as 18 nM. Further, the IC50 in the test on BaF3 [2] was 2020 nM; in the test with BaF3 [3], 33.9 nM; with BaF3 [4], greater than 10000 nM; with BaF3 [5], 35.6 nM; in the test on BaF3 [6], 196 nM.

Take `Cc1cc(OCCN2CCOCC2)ccc1-c1cc(-c2ccc(NC(=O)Nc3cc(C(C)(C)C)on3)cc2)n[nH]1`: in test [1], the Kd was determined as 12.5 nM. The IC50 with BaF3 [2] is 1960 nM; in the test on BaF3 [3], 173 nM; in the test with BaF3 [4], greater than 3000 nM; in the test with BaF3 [5] it was 120 nM; in the test with BaF3 [6], 2040 nM.

On to `COc1ccc(CN2[C@@H]3C[C@H]2CN(c2ccc(-c4cc(OCC(C)(C)O)cn5ncc(C#N)c45)cn2)C3)cn1`, for which the IC50 with BaF3 [2] is 883 nM; in the test with BaF3 [3], 26 nM; with BaF3 [4], greater than 3000 nM; in the test with BaF3 [5], 11.5 nM; with BaF3 [6], 1310 nM.

With `COc1cc(-c2cc(-c3ccc(NC(=O)Nc4cc(C(C)(C)C)on4)cc3)n[nH]2)ccc1OCCN1CCOCC1`, the Kd in test [1] is 6.1 nM. Moreover, the IC50 in the test with BaF3 [2] turned out to be 417 nM; in the test on BaF3 [3] it was 10.4 nM; in the test on BaF3 [4], 442 nM; in the test with BaF3 [5] it was 12.1 nM; in the test with BaF3 [6] it was 131 nM.

Turning to `CC(C)(C)c1cc(NC(=O)Nc2ccc(-c3cc(-c4ccc(OCCCN5CCOCC5)cc4)[nH]n3)cc2)no1`, the Kd in test [1] stood at 4.1 nM. For the same molecule, the IC50 worked out at 570 nM in the test with BaF3 [2]; 12.4 nM with BaF3 [3]; 1080 nM in the test with BaF3 [4]; 9.6 nM in the test on BaF3 [5]; 166 nM with BaF3 [6].

As for `COc1cc(-c2cc(-c3ccc(NC(=O)Nc4cc(C(C)(C)C(F)(F)F)on4)c(F)c3)n[nH]2)ccc1OCCN1CCOCC1`, the dissociation constant (Kd) in test [1] turned out to be 9 nM. The IC50 in the test with BaF3 [2] stood at 319 nM; in the test on BaF3 [3], 3.9 nM; in the test with BaF3 [4], 373 nM; in the test with BaF3 [5] it was 3 nM; in the test on BaF3 [6], 118 nM.

As to `CC(C)(C)c1cc(NC(=O)Nc2ccc(-c3cc(-c4cccc(OCCN5CCOCC5)c4)[nH]n3)cc2)no1`, the Kd in test [1] was found to be 6 nM. In addition, the IC50 in the test on BaF3 [2] was determined as 1020 nM; with BaF3 [3], 188 nM; in the test with BaF3 [4] it was 1560 nM; in the test on BaF3 [5], 226 nM; in the test on BaF3 [6], 587 nM.

Take `CC(C)(C)c1cc(NC(=O)Nc2ccc(-c3cc(-c4ccc(OCCN5CCOCC5)cc4)[nH]n3)cc2F)no1`: in test [1], the Kd was 8.1 nM. Further, the IC50 was 1320 nM in the test on BaF3 [2]; 6.6 nM with BaF3 [3]; greater than 3000 nM with BaF3 [4]; 7.1 nM with BaF3 [5]; 99.9 nM in the test with BaF3 [6].

With `CC(C)(C)c1cc(NC(=O)Nc2ccc(-c3cc(-c4ccc(OCCN5CCOCC5)c(F)c4)[nH]n3)cc2)no1`, the Kd in test [1] worked out at 9.7 nM. Further, the IC50 in the test on BaF3 [2] was 2250 nM; in the test with BaF3 [3] it was 14 nM; in the test with BaF3 [4], greater than 10000 nM; in the test with BaF3 [5], 10.6 nM; with BaF3 [6], 126 nM.

For the molecule `CC(C)(C)c1cc(NC(=O)Nc2ccc(-c3cc(-c4ccc(OCCN5CCOCC5)c(Cl)c4)[nH]n3)cc2)no1`, the Kd in test [1] turned out to be 9.4 nM. For the same molecule, the IC50 was greater than 10000 nM in the test on BaF3 [2]; 27.9 nM in the test with BaF3 [3]; greater than 10000 nM in the test with BaF3 [4]; 20.4 nM in the test on BaF3 [5]; 159 nM with BaF3 [6].

With `COc1cc(-c2cc(-c3ccc(NC(=O)Nc4cc(C(C)(C)C(F)(F)F)on4)cc3)n[nH]2)ccc1OCCN1CCOCC1`, the Kd in test [1] came out at 5.6 nM. The IC50 with BaF3 [2] is 230 nM; in the test with BaF3 [3], 5.2 nM; with BaF3 [4], 184 nM; with BaF3 [5], 7.1 nM; with BaF3 [6] it was 139 nM.

Regarding `COc1cc(NC(=O)Nc2cc(C(C)(C)C)on2)ccc1-c1cc(-c2ccc(OCCN3CCOCC3)cc2)[nH]n1`, the Kd in test [1] is 32 nM. For the same molecule, the IC50 with BaF3 [2] was found to be 984 nM; in the test on BaF3 [3] it was 437 nM; with BaF3 [4], 625 nM; in the test with BaF3 [5] it was 387 nM; in the test with BaF3 [6], 1130 nM.

For `CC(C)(C)c1cc(NC(=O)Nc2ccc(-c3cc(-c4ccc(OCCN5CCOCC5)cc4F)[nH]n3)cc2)no1`, the Kd in test [1] was 8.3 nM. The IC50 is greater than 10000 nM in the test on BaF3 [2]; 18.1 nM in the test with BaF3 [3]; greater than 10000 nM in the test with BaF3 [4]; 17.9 nM with BaF3 [5]; 412 nM in the test on BaF3 [6].

Turning to `CN(C)CCCOc1ccc(-c2cc(-c3ccc(NC(=O)Nc4cc(C(C)(C)C)on4)cc3)n[nH]2)cc1`, the Kd in test [1] was 2 nM. Further, the IC50 was determined as 532 nM in the test with BaF3 [2]; 10.5 nM in the test on BaF3 [3]; 1180 nM with BaF3 [4]; 9.3 nM in the test on BaF3 [5]; 131 nM in the test on BaF3 [6].

In the case of `CN(C)CCOc1ccc(-c2cc(-c3ccc(NC(=O)Nc4cc(C(C)(C)C)on4)cc3)n[nH]2)cc1`, in test [1], the dissociation constant Kd was determined as 3.2 nM. Moreover, the IC50 was 842 nM with BaF3 [2]; 8.5 nM with BaF3 [3]; 1950 nM in the test on BaF3 [4]; 7.9 nM in the test on BaF3 [5]; 103 nM in the test on BaF3 [6].

As to `CC(C)(C)c1cc(NC(=O)Nc2ccc(-c3cc(-c4ccc(OCCN5CCOCC5)cc4Br)[nH]n3)cc2)no1`, the Kd in test [1] came to 15.5 nM. Besides, the IC50 came out at 1280 nM in the test on BaF3 [2]; 62 nM in the test on BaF3 [3]; 1210 nM in the test on BaF3 [4]; 67 nM in the test with BaF3 [5]; 606 nM with BaF3 [6].

With `CC(C)(C)c1cc(NC(=O)Nc2ccc(-c3cc(-c4ccc(OCCN5CCOCC5)cc4)[nH]n3)c(Cl)c2)no1`, the Kd in test [1] was found to be 16 nM. Also, the IC50 in the test with BaF3 [2] worked out at 1010 nM; in the test with BaF3 [3], 209 nM; with BaF3 [4], 1050 nM; with BaF3 [5], 165 nM; with BaF3 [6] it was 410 nM.

On to `CO[C@]1(C(=O)N[C@@H](C)c2ccc(-n3cc(F)cn3)nc2)CC[C@@H](c2nc(C)cc(Nc3cc(C)[nH]n3)n2)CC1`, for which the IC50 in the test with BaF3 [2] worked out at 358 nM; in the test with BaF3 [3], 4.1 nM; in the test on BaF3 [4] it was 1040 nM; in the test on BaF3 [5], 5 nM; in the test with BaF3 [6], 114 nM.

As for `COc1cc(-c2cc(-c3ccc(NC(=O)Nc4cc(C(C)(C)C)on4)c(F)c3)n[nH]2)ccc1OCCN1CCOCC1`, the dissociation constant Kd in test [1] amounted to 10.2 nM. For the same molecule, the IC50 in the test on BaF3 [2] is 313 nM; in the test with BaF3 [3], 7.4 nM; with BaF3 [4] it was greater than 10000 nM; with BaF3 [5] it was 6.7 nM; in the test on BaF3 [6], 122 nM.

`CC(C)(C)c1cc(NC(=O)Nc2ccc(-c3cc(-c4ccc(OCCN5CCOCC5)cc4)[nH]n3)cc2Cl)no1`: the Kd in test [1] amounted to 21 nM. Also, the IC50 is 746 nM in the test with BaF3 [2]; 36 nM in the test on BaF3 [3]; greater than 10000 nM with BaF3 [4]; 29 nM in the test with BaF3 [5]; 335 nM with BaF3 [6].

On to `CC(C)(C)c1cc(NC(=O)Nc2ccc(-c3cc(-c4ccc(OCCN5CCOCC5)cc4Cl)[nH]n3)cc2)no1`, for which the Kd in test [1] came to 11 nM. Besides, the IC50 in the test with BaF3 [2] was 626 nM; in the test on BaF3 [3], 35.5 nM; in the test on BaF3 [4], greater than 10000 nM; with BaF3 [5] it was 36.2 nM; with BaF3 [6], 533 nM.

As to `CC(C)(C)c1cc(NC(=O)Nc2ccc(-c3cn(-c4ccc(OCCN5CCOCC5)cc4Cl)nn3)cc2)no1`, the Kd in test [1] came out at 26.5 nM. Besides, the IC50 turned out to be 1070 nM in the test with BaF3 [2]; 1180 nM with BaF3 [3]; 1090 nM in the test on BaF3 [4]; 585 nM in the test with BaF3 [5]; 1830 nM in the test on BaF3 [6].

(Values after ChEMBL document CHEMBL5346912, “Discovery of 3,5-diaryl-1H-pyrazol-based ureas as potent RET inhibitors” (Eur J Med Chem, 2023).)
